Consider 14 compounds from patent US11986532B2 (Arvinas Operations, Inc., priority 2021, dated 2024).

The structures appear in SMILES notation. Read-outs that look alike come from different tables or passages of the source.

The experiment deals with T1, BCL6 (Homo sapiens, UniProt P41182).
T1 construct: endogenous in cells; host or cells: T47D breast cancer epithelial cells
The experiment can be described thus: Immunofluorescence protocol for high content imaging of BCL6 (degradation) in T47D cells, 3 days compound treatment. The conditions noted are these: for DC50: read-out: Mean DC50 (nM)* category; for Dmax: read-out: Mean Dmax (%)** category. The experiment is classed as cell-based. A digest of the protocol: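 Remaining BCL6 in breast cancer T47D cells was measured by high-content immunofluorescence imaging after 3 days of treatment with serially diluted compound (top 0.1 or 1 μM). Nuclei were stained with Hoechst and cells with CellMask.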

Setting [1] is: T47D cells, 3 days compound treatment.

A word on the DC50: it is the midpoint of the concentration-degradation curve. By Dmax is commonly meant the largest share of the target that was removed. With `CNC(=O)COc1cc2cc(Nc3nc(N4CCC(CN5CC6(CCN(c7ccc8c(c7)CN(C7CCC(=O)NC7=O)C8=O)C6)CC5=O)CC4)ncc3Cl)ccc2n(C(C)C)c1=O` (stereo not shown) [Compound 54, 2-{[6-({5-chloro-2-[4-({7-[2-(2,6-dioxopiperidin-3-yl)-1-oxo-2,3-dihydro-1H-isoindol-5-yl]-3-oxo-2,7-diazaspiro[4.4]nonan-2-yl}methyl)piperidin-1-yl]pyrimidin-4-yl}amino)-2-oxo-1-(propan-2-yl)-1,2-dihydroquinolin-3-yl]oxy}-N-methylacetamide], under setting [1], the DC50 is less than 10 nM and the Dmax was less than 50%.

Take `CNC(=O)COc1cc2cc(Nc3nc(N4CCC(O[C@H]5C[C@H](N6CCN(c7ccc8c(c7)C(=O)N(C7CCC(=O)NC7=O)C8=O)C(C)(C)C6)C5)CC4)ncc3Cl)ccc2n(C(C)C)c1=O` (stereo partly shown) [Compound 367, 2-({6-[(5-chloro-2-{4-[(1r,3r)-3-{4-[2-(2,6-dioxopiperidin-3-yl)-1,3-dioxo-2,3-dihydro-1H-isoindol-5-yl]-3,3-dimethylpiperazin-1-yl}cyclobutoxy]piperidin-1-yl}pyrimidin-4-yl)amino]-2-oxo-1-(propan-2-yl)-1,2-dihydroquinolin-3-yl}oxy)-N-methylacetamide]: the half-maximal degradation concentration (DC50) is 10 to 50 nM. For the same compound, where the note is “T47D”, the Dmax was not below 70%.

Consider `CNC(=O)COc1cc2cc(Nc3nc(N4CCC(O[C@H]5C[C@H](N6CC[C@H](c7ccc8c(c7F)CN([C@H]7CCC(=O)NC7=O)C8=O)C(C)(C)C6)C5)CC4)ncc3Cl)ccc2n(C(C)C)c1=O` [Compound 210, 2-({6-[(5-chloro-2-{4-[(1r,3r)-3-[(4S)-4-{2-[(3S)-2,6-dioxopiperidin-3-yl]-4-fluoro-1-oxo-2,3-dihydro-1H-isoindol-5-yl}-3,3-dimethylpiperidin-1-yl]cyclobutoxy]piperidin-1-yl}pyrimidin-4-yl)amino]-2-oxo-1-(propan-2-yl)-1,2-dihydroquinolin-3-yl}oxy)-N-methylacetamide], for which, under setting [1], the 50% degradation concentration (DC50) is less than 10 nM and the Dmax was not below 70%.

Take `CNC(=O)COc1cc2cc(Nc3nc(N4CCC(O[C@H]5C[C@H](N6CC[C@@H](c7ccc8c(c7F)CN(C7CCC(=O)NC7=O)C8=O)C(C)(C)C6)C5)CC4)ncc3Cl)ccc2n(C(C)C)c1=O` (stereo partly drawn) [Compound 430, 2-({6-[(5-chloro-2-{4-[(1r,3r)-3-[(4R)-4-[2-(2,6-dioxopiperidin-3-yl)-4-fluoro-1-oxo-2,3-dihydro-1H-isoindol-5-yl]-3,3-dimethylpiperidin-1-yl]cyclobutoxy]piperidin-1-yl}pyrimidin-4-yl)amino]-2-oxo-1-(propan-2-yl)-1,2-dihydroquinolin-3-yl}oxy)-N-methylacetamide]: the DC50 is less than 10 nM. In addition, the Dmax (T47D) was not below 70%.

As to `CNC(=O)COc1cc2cc(Nc3nc(N4CCC(O[C@H]5C[C@H](N6CCC(c7ccc8c(c7F)[C@@H](C)N([C@H]7CCC(=O)NC7=O)C8=O)CC6)C5)CC4)ncc3Cl)ccc2n(C(C)C)c1=O` [Compound 288, 2-({6-[(5-chloro-2-{4-[(1r,3r)-3-{4-[(3R)-2-[(3S)-2,6-dioxopiperidin-3-yl]-4-fluoro-3-methyl-1-oxo-2,3-dihydro-1H-isoindol-5-yl]piperidin-1-yl}cyclobutoxy]piperidin-1-yl}pyrimidin-4-yl)amino]-2-oxo-1-(propan-2-yl)-1,2-dihydroquinolin-3-yl}oxy)-N-methylacetamide], the DC50 was in the range of 10 to 50 nM. Further, the Dmax (T47D) was less than 50%.

Consider `CNC(=O)COc1cc2cc(Nc3nc(N4CCC5(CC4)CN(C(C)(C)C4CCN(c6cccc7c6CN(C6CCC(=O)NC6=O)C7=O)CC4)C5)ncc3Cl)ccc2n(C(C)C)c1=O` (stereo not shown) [Compound 36, 2-{[6-({5-chloro-2-[2-(2-{1-[2-(2,6-dioxopiperidin-3-yl)-1-oxo-2,3-dihydro-1H-isoindol-4-yl]piperidin-4-yl}propan-2-yl)-2,7-diazaspiro [3.5]nonan-7-yl]pyrimidin-4-yl}amino)-2-oxo-1-(propan-2-yl)-1,2-dihydroquinolin-3-yl]oxy}-N-methylacetamide], for which, under setting [1], the DC50 was less than 10 nM and the Dmax is not below 70%.

On to `CNC(=O)COc1cc2cc(Nc3nc(N4CCC(O[C@H]5C[C@H](N6CCC(c7ccc8c(c7F)[C@@H](C)N(C7CCC(=O)NC7=O)C8=O)CC6)C5)CC4)ncc3Cl)ccc2n(C(C)C)c1=O` (stereo partly drawn) [Compound 289, 2-({6-[(5-chloro-2-{4-[(1r,3r)-3-{4-[(3R)-2-(2,6-dioxopiperidin-3-yl)-4-fluoro-3-methyl-1-oxo-2,3-dihydro-1H-isoindol-5-yl]piperidin-1-yl}cyclobutoxy]piperidin-1-yl}pyrimidin-4-yl)amino]-2-oxo-1-(propan-2-yl)-1,2-dihydroquinolin-3-yl}oxy)-N-methylacetamide], for which the half-maximal degradation concentration (DC50) was less than 10 nM. Also, the Dmax (T47D) is not below 70%.

Turning to `CNC(=O)COc1cc2cc(Nc3nc(N4CCC(O[C@H]5C[C@H](N6CCC7(CCN(c8ccc9c(c8)C(=O)N(C8CCC(=O)NC8=O)C9=O)CC7)C6)C5)CC4)ncc3Cl)ccc2n(C(C)C)c1=O` (stereo partly shown) [Compound 362, 2-({6-[(5-chloro-2-{4-[(1r,3r)-3-{8-[2-(2,6-dioxopiperidin-3-yl)-1,3-dioxo-2,3-dihydro-1H-isoindol-5-yl]-2,8-diazaspiro [4.5]decan-2-yl}cyclobutoxy]piperidin-1-yl}pyrimidin-4-yl)amino]-2-oxo-1-(propan-2-yl)-1,2-dihydroquinolin-3-yl}oxy)-N-methylacetamide], the DC50 lay within 10 to 50 nM. For the same compound, the Dmax (T47D) was not below 70%.

In the case of `CNC(=O)COc1cc2cc(Nc3nc(N4CCC(O[C@H]5CC[C@@H](N6CCC(c7ccc8c(c7)C(=O)N(C7CCC(=O)NC7=O)C8=O)CC6)CC5)CC4)ncc3Cl)ccc2n(C(C)C)c1=O` (stereo partly shown) [Compound 110, 2-[(6-{[5-chloro-2-(4-{[(1s,4s)-4-{4-[2-(2,6-dioxopiperidin-3-yl)-1,3-dioxo-2,3-dihydro-1H-isoindol-5-yl]piperidin-1-yl}cyclohexyl]oxy}piperidin-1-yl)pyrimidin-4-yl]amino}-2-oxo-1-(propan-2-yl)-1,2-dihydroquinolin-3-yl)oxy]-N-methylacetamide], under setting [1], the DC50 is not below 100 nM and the Dmax was not below 70%.

Take `CNC(=O)COc1cc2cc(Nc3nc(N4CCC(O[C@H]5C[C@H](N6CCCC7(CCN(c8ccc9c(c8F)CN(C8CCC(=O)NC8=O)C9=O)C7)C6)C5)CC4)ncc3Cl)ccc2n(C(C)C)c1=O` (stereo partly shown) [Compound 401, 2-({6-[(5-chloro-2-{4-[(1r,3r)-3-{2-[2-(2,6-dioxopiperidin-3-yl)-4-fluoro-1-oxo-2,3-dihydro-1H-isoindol-5-yl]-2,7-diazaspiro[4.5]decan-7-yl}cyclobutoxy]piperidin-1-yl}pyrimidin-4-yl)amino]-2-oxo-1-(propan-2-yl)-1,2-dihydroquinolin-3-yl}oxy)-N-methylacetamide]: the DC50 is less than 10 nM. Where the note is “T47D”, the Dmax was not below 70%.

Regarding `CNC(=O)COc1cc2cc(Nc3nc(N4CCN(CC5CC6(CCN(c7cc8c(cc7F)C(=O)N(C7CCC(=O)NC7=O)C8)CC6)C5)CC4)ncc3Cl)ccc2n(C(C)C)c1=O` (stereo not shown) [Compound 318, 2-{[6-({5-chloro-2-[4-({7-[2-(2,6-dioxopiperidin-3-yl)-6-fluoro-1-oxo-2,3-dihydro-1H-isoindol-5-yl]-7-azaspiro[3.5]nonan-2-yl}methyl)piperazin-1-yl]pyrimidin-4-yl}amino)-2-oxo-1-(propan-2-yl)-1,2-dihydroquinolin-3-yl]oxy}-N-methylacetamide], the DC50 was less than 10 nM. Besides, the Dmax (T47D) lay in the range of 50 to 70%.

Take `CNC(=O)COc1cc2cc(Nc3nc(N4CCC(N5CCC56CN(C5CCCN(c7ccc8c(c7)CN(C7CCC(=O)NC7=O)C8=O)C5)C6)CC4)ncc3Cl)ccc2n(C(C)C)c1=O` (stereo not shown) [Compound 222, 2-{[6-({5-chloro-2-[4-(6-{1-[2-(2,6-dioxopiperidin-3-yl)-1-oxo-2,3-dihydro-1H-isoindol-5-yl]piperidin-3-yl}-1,6-diazaspiro[3.3]heptan-1-yl)piperidin-1-yl]pyrimidin-4-yl}amino)-2-oxo-1-(propan-2-yl)-1,2-dihydroquinolin-3-yl]oxy}-N-methylacetamide]: the DC50 is less than 10 nM. The Dmax (T47D) lay in the range of 50 to 70%.

In the case of `CNC(=O)COc1cc2cc(Nc3nc(N4CCC(O[C@H]5C[C@H](N6CC[C@H](c7ccc8c(c7F)CN(C7CCC(=O)NC7=O)C8=O)[C@H](OC)C6)C5)CC4)ncc3Cl)ccc2n(C(C)C)c1=O` (stereo partly drawn) [Compound 279, 2-({6-[(5-chloro-2-{4-[(1r,3r)-3-[(3S,4R)-4-[2-(2,6-dioxopiperidin-3-yl)-4-fluoro-1-oxo-2,3-dihydro-1H-isoindol-5-yl]-3-methoxypiperidin-1-yl]cyclobutoxy]piperidin-1-yl}pyrimidin-4-yl)amino]-2-oxo-1-(propan-2-yl)-1,2-dihydroquinolin-3-yl}oxy)-N-methylacetamide], the DC50 was less than 10 nM. In addition, the Dmax (T47D) was not below 70%.

In the case of `CNC(=O)COc1cc2cc(Nc3nc(N4CCC(O[C@H]5C[C@H](N6CCC7(CN(c8ccc9c(c8)C(=O)N(C8CCC(=O)NC8=O)C9)C7)C6)C5)CC4)ncc3Cl)ccc2n(C(C)C)c1=O` (stereo partly shown) [Compound 345, 2-({6-[(5-chloro-2-{4-[(1r,3r)-3-{2-[2-(2,6-dioxopiperidin-3-yl)-3-oxo-2,3-dihydro-1H-isoindol-5-yl]-2,6-diazaspiro [3.4]octan-6-yl}cyclobutoxy]piperidin-1-yl}pyrimidin-4-yl)amino]-2-oxo-1-(propan-2-yl)-1,2-dihydroquinolin-3-yl}oxy)-N-methylacetamide], the DC50 was less than 10 nM. The Dmax (T47D) was not below 70%.
